Source: patent publication US10106524B2, “2,3,4,5-tetrahydropyridin-6-amine and 3,4-dihydro-2H-pyrrol-5-amine compound inhibitors of beta-secretase” (Janssen Pharmaceutica NV, priority 2015, dated 2018)

What was measured:
[1] = target: T1, recombinant BACE1 protein (Homo sapiens, UniProt P56817); assay: BACE1 biochemical FRET based assay - Method 2; settings: BACE1 0.04 μg/ml, 450 minutes, 20 μM substrate, pH 5.0; for IC50: read-out: Biochemical FRET based assay- Method 2 pIC50 (converted)
T1 construct: recombinant BACE1 protein in a final concentration of 1 μg/ml
From the text: (§1) BACE1 Biochemical FRET Based Assay
(§2) This assay is a Fluorescence Resonance Energy Transfer Assay (FRET) based assay. The substrate for this assay is an APP derived 13 amino acids peptide that contains the ‘Swedish’ Lys-Met/Asn-Leu mutation of the amyloid precursor protein (APP) beta-secretase cleavage site. This substrate also contains two fluorophores: (7-methoxycoumarin-4-yl) acetic acid (Mca) is a fluorescent donor with excitation wavelength at 320 nm and emission at 405 nm and 2,4-Dinitrophenyl (Dnp) is a proprietary quencher acceptor. […] Upon cleavage by BACE1, the fluorophore Mca is separated from the quenching group Dnp, restoring the full fluorescence yield of the donor. The increase in fluorescence is linearly related to the rate of proteolysis.
Briefly in a 384-well format recombinant BACE1 protein in a final concentration of 0.04 μg/ml is incubated for 450 minutes at room temperature with 20 μM substrate in incubation buffer (50 mM Citrate buffer pH 5.0, 0.05% PEG) in the presence of compound or DMSO. Next the amount of proteolysis is directly measured by fluorescence measurement (excitation at 320 nm and emission at 405 nm) at different incubation times (0, 30, 60, 90, 120 and 450 min). For every experiment a time curve (every 30 min between 0 min and 120 min) is used to determine the time where we find the lowest basal signal of the high control. The signal at this time (Tx) is used to subtract from the signal at 450 min. Results are expressed in RFU, as difference between T450 and Tx.
(§3) A best-fit curve is fitted by a minimum sum of squares method to the plot of % Controlmin versus compound concentration. From this an IC50 value (inhibitory concentration causing 50% inhibition of activity) can be obtained.

[2] = system: Abeta total produced and secreted by SKNBE2 cells expressing hAPP695; assay: Cellular αLisa assay in SKNBE2 cells - Abeta total; type: cell-based; settings: Homo sapiens, incubated for 18 hours, read-out: Cellular αLisa assay in SKNBE2 cells Abeta total pIC50 (converted)
Experimental: (§4) Cellular αLisa Assay in SKNBE2 Cells
(§5) In two αLisa assays the levels of Abeta total and Abeta 1-42 produced and secreted into the medium of human neuroblastoma SKNBE2 cells are quantified. The assay is based on the human neuroblastoma SKNBE2 expressing the wild type Amyloid Precursor Protein (hAPP695). The compounds are diluted and added to these cells, incubated for 18 hours and then measurements of Abeta 1-42 and Abeta total are taken. Abeta total and Abeta 1-42 are measured by sandwich αLisa. αLisa is a sandwich assay using biotinylated antibody AbN/25 attached to streptavidin coated beads and antibody Ab4G8 or cAb42/26 conjugated acceptor beads for the detection of Abeta total and Abeta 1-42 respectively. In the presence of Abeta total or Abeta 1-42, the beads come into close proximity. The excitation of the donor beads provokes the release of singlet oxygen molecules that trigger a cascade of energy transfer in the acceptor beads, resulting in light emission. Light emission is measured after 1 hour incubation (excitation at […] and emission at 615 nm).
as §3

[3] = target: T2, recombinant BACE2 protein (Homo sapiens, UniProt Q9Y5Z0); assay: BACE2 biochemical FRET based assay; settings: BACE2 0.4 μg/nil, 450 minutes, 10 μM substrate, pH 5.0; for IC50: read-out: Biochemical FRET based assay pIC50 (BACE2) (converted)
T2 construct: recombinant BACE2 protein in a final concentration of 0.4 μg/nil
T2 sequence (Q9Y5Z0 63-518): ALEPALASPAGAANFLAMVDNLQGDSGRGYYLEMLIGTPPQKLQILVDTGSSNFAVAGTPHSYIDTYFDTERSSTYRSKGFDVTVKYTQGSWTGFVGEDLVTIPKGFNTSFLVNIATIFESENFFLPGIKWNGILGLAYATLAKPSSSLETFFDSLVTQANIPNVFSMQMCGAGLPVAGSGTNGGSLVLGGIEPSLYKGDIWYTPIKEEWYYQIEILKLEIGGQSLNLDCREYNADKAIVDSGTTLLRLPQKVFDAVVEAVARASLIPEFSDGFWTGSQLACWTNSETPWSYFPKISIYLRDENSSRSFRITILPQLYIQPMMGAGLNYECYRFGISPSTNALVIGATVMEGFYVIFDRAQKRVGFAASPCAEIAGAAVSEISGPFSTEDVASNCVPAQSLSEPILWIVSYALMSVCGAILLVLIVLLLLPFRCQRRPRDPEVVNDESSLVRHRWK
From the text: BACE2 Biochemical FRET Based Assay
as §2, with “assay” for “assay is an APP derived 13 amino acids peptide that”, “the beta-secretase,” for “BACE1,”
Briefly in a 384-well format recombinant BACE2 protein in a final concentration of […] is incubated for 450 minutes at room temperature with 10 μM substrate in incubation buffer (50 mM Citrate buffer pH 5.0, 0.05% PEG, no DMSO) in the absence or presence of compound. Next the amount of proteolysis is directly measured by fluorescence measurement at T=0 and T=450 (excitation at 320 nm and emission at 405 nm). Results are expressed in RFU (Relative Fluorescence Units), as difference between T450 and T0.
as §3

[4] = system: Abeta 1-42 produced and secreted by SKNBE2 cells expressing hAPP695; assay: Cellular αLisa assay in SKNBE2 cells - Abeta 42; type: cell-based, human; settings: incubated for 18 hours; for IC50: Homo sapiens, read-out: Cellular αLisa assay in SKNBE2 cells Abeta 42 pIC50 (converted)
Experimental: as §4, §5, §3

[5] = target: T1, recombinant BACE1 protein; assay: BACE1 biochemical FRET based assay - Method 1; settings: BACE1 1 μg/ml, 120 minutes, 10 μm substrate, pH 5.0; read-out: Biochemical FRET based assay - Method 1 pIC50 (converted)
From the text: as §1, §2
Briefly in a 384-well format recombinant BACE1 protein in a final concentration of 1 μg/ml is incubated for 120 minutes at room temperature with 10 μm substrate in incubation buffer (40 mM Citrate buffer pH 5.0, 0.04% PEG, 4% DMSO) in the absence or presence of compound. Next the amount of proteolysis is directly measured by fluorescence measurement at T=0 and T=120 (excitation at 320 nm and emission at 405 nm). Results are expressed in RFU (Relative Fluorescence Units), as difference between T120 and T0.
as §3

T1 sequence (P56817 46-501): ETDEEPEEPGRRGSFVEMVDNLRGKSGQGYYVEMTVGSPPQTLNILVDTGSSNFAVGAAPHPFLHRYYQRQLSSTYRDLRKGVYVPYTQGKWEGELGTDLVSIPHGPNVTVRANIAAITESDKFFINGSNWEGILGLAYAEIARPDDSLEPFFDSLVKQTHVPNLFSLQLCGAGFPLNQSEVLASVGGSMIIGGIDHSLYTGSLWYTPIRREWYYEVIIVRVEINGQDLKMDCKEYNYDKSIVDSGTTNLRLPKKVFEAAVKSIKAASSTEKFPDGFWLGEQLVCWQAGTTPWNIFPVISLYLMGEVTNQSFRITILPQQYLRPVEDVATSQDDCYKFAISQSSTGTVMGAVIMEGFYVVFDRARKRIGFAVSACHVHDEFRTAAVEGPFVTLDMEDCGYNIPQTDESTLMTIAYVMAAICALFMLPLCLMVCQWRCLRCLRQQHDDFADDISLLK

Row | IC50 [1] [µM] | IC50 [2] [µM] | IC50 [3] [µM] | IC50 [4] [µM] | IC50 [5] [µM] | Compound | Biochemical FRET based assay- Method 2 pIC50 [1] | Biochemical FRET based assay pIC50 (BACE2) [3] | Cellular αLisa assay in SKNBE2 cells Abeta 42 pIC50 [4]
1 | 0.871 | 0.178 | > 10 | 0.17 |  | COc1cnc(C(=O)Nc2ccc(F)c(C3(C)N=C(N)CC3C(F)(F)F)c2)cn1 (racemic) [Compound 17, (±)-N-[3-[(2S*,3R*)-5-amino-2-methyl-3-(trifluoromethyl)-3,4-dihydropyrrol-2-yl]-4-fluoro-phenyl]-5-methoxy-pyrazine-2-carboxamide] |  |  | 
2 | 0.38 | 0.0646 | 2.19 | 0.0676 |  | CC1(c2cc(NC(=O)c3ccc(C#N)cn3)ccc2F)N=C(N)CC1C(F)(F)F (racemic) [Compound 18, (+)-N-[3-[(2S*,3R*)-5-amino-2-methyl-3-(trifluoromethyl)-3,4-dihydropyrrol-2-yl]-4-fluoro-phenyl]-5-cyano-pyridine-2-carboxamide] |  |  | 
3 | 1.02 | 0.263 |  | 0.295 | 1.48 | C[C@@]1(c2cccc(-c3cncnc3)c2)C[C@@H](C(F)(F)F)CC(N)=N1 [Compound 1, (4R,6S)-6-methyl-6-(3-pyrimidin-5-ylphenyl)-4-(trifluoromethyl)-3,4,5,6-tetrahydropyridin-2-amine] |  |  | 
4 | > 10 | 3.98 | > 10 | 4.27 | 18.2 | C[C@@]1(c2cccc(-c3cncnc3)c2)C[C@H](C(F)(F)F)CC(N)=N1 [Compound 2, (4S,6S)-6-methyl-6-(3-pyrimidin-5-ylphenyl)-4-(trifluoromethyl)-3,4,5,6-tetrahydropyridin-2-amine] |  |  | 
5 | 0.0182 | 0.0209 | 0.0209 | 0.024 | 0.0263 | C[C@@]1(c2cccc(NC(=O)c3ncc(Cl)cc3F)c2)C[C@@H](C(F)(F)F)CC(N)=N1 [Compound 5, N-[3-[(2S,4R)-6-amino-2-methyl-4-(trifluoromethyl)-4,5-dihydro-3H-pyridin-2-yl]phenyl]-5-chloro-3-fluoro-pyridine-2-carboxamide] |  |  | 
6 | 1.62 | 1.86 | 1.15 | 2 | 4.9 | C[C@@]1(c2cccc(NC(=O)c3ncc(Cl)cc3F)c2)C[C@H](C(F)(F)F)CC(N)=N1 [Compound 6, N-[3-[(2S,4S)-6-amino-2-methyl-4-(trifluoromethyl)-4,5-dihydro-3H-pyridin-2-yl]phenyl]-5-chloro-3-fluoro-pyridine-2-carboxamide] |  |  | 
7 | 0.0204 | 0.024 | 0.132 | 0.024 | 0.0324 | C[C@@]1(c2cccc(NC(=O)c3ccc(C#N)cn3)c2)C[C@@H](C(F)(F)F)CC(N)=N1 [Compound 7, N-[3-[(2S,4R)-6-amino-2-methyl-4-(trifluoromethyl)-4,5-dihydro-3H-pyridin-2-yl]phenyl]-5-cyano-pyridine-2-carboxamide] |  |  | 
8 | 6.76 | 2.51 | > 10 | 2.29 | 9.77 | C[C@@]1(c2cccc(NC(=O)c3ccc(C#N)cn3)c2)C[C@H](C(F)(F)F)CC(N)=N1 [Compound 8, N-[3-[(2S,4S)-6-amino-2-methyl-4-(trifluoromethyl)-4,5-dihydro-3H-pyridin-2-yl]phenyl]-5-cyano-pyridine-2-carboxamide] |  |  | 
9 | 0.00759 | 0.00589 | 0.0676 | 0.00525 | 0.0389 | COc1cnc(C(=O)Nc2ccc(F)c([C@]3(C)C[C@@H](C(F)(F)F)CC(N)=N3)c2)cn1 [Compound 9, N-{3-[(2S,4R)-6-amino-2-methyl-4-(trifluoromethyl)-4,5-dihydro-3H-pyridin-2-yl]-4-fluoro-phenyl]-5-methoxy-pyrazine-2-carboxamide] |  |  | 
10 | 0.00263 | 0.002 | 0.00407 | 0.00234 | 0.0309 | C[C@@]1(c2cc(NC(=O)c3ccc(Cl)cn3)ccc2F)C[C@@H](C(F)(F)F)CC(N)=N1 [Compound 11] |  |  | 
11 | > 10 | 8.32 | > 10 | 8.91 |  | CC1(c2cc(-c3cncnc3)ccc2F)N=C(N)CC1C(F)(F)F (centres unmarked) [Compound 14] |  |  | 
12 | 0.302 | 0.0813 | 0.692 | 0.0617 |  | C[C@]1(c2cc(NC(=O)c3ccc(Cl)cn3)ccc2F)N=C(N)C[C@H]1C(F)(F)F [Compound 19, N-[3-[(2S,3R)-5-amino-2-methyl-3-(trifluoromethyl)-3,4-dihydropyrrol-2-yl]-4-fluoro-phenyl]-5-chloro-pyridine-2-carboxamide] |  |  | 
13 | > 10 | 8.32 | > 10 | 8.91 |  | C[C@@]1(c2cc(NC(=O)c3ccc(Cl)cn3)ccc2F)N=C(N)C[C@@H]1C(F)(F)F [Compound 20, N-[3-[(2R,3S)-5-amino-2-methyl-3-(trifluoromethyl)-3,4-dihydropyrrol-2-yl]-4-fluoro-phenyl]-5-chloro-pyridine-2-carboxamide] |  |  | 
14 |  |  |  |  |  | (±)-N-[3-[(2S*,3R*)-5-amino-2-methyl-3-(trifluoromethyl)-3,4-dihydropyrrol-2-yl]-4-fluoro-phenyl]-5-(2,2,2-trifluoroethoxy)pyrazine-2-carboxamide [Compound 24] | 6.10 | <5 | 6.38
